Entries after “also recorded” stand apart in the source; their conditions may differ.
Experiments:
human LPA5 = molecular target: T1, human LPA5 (Homo sapiens, UniProt Q9H1C0); test: Ca2+ mobilization assay, LPA5 transiently transfected RH7777 cells; type: cell-based; conditions: for Emax at 10 µM: RH7777; for LPA5 ligand type: agonist/antagonist in words
T1 construct: expressed in transfected cells; host or cells: rat hepatoma RH7777 cells, transient (Effectene)
Description: Receptor activation using Ca^2+ mobilization assay for diastereomers of 1 (also represented as 19b). The rat hepatoma (RH7777) cell lines individually expressing either LPA1, LPA2, LPA3 or LPA5 receptors and Chinese hamster ovary (CHO) cell line were analyzed to examine agonism and antagonism. […] CHO cells stably expressing either vector or LPA4 were kindly gifted from Dr. Shimizu (University of Tokyo, Tokyo, Japan).
Transient transfection of LPA5. RH7777 cells in a 10-cm dish at a density of 2×10^6/dish were transfected with 2 μg of plasmid DNA with Effectene (Qiagen, Valencia, Calif.) according to the manufacturer's instructions for 24 h, then replated onto PLL-coated 96-well plates at a density of 5×10^4 cells/well and cultured overnight. The following day, the culture medium was then replaced with modified Krebs buffer, and the cells were serum starved for 4 h. Subsequently, cells were loaded with Fura-2 AM for 30 min in modified Krebs buffer containing 2% (v/v) pluronic acid.
After incubating the cells with Fura-2 AM, the cells were rinsed with Krebs buffer and changes in the intracellular Ca^2+ concentration were monitored by determining the ratio of emitted light intensities at 520 nm in response to excitation at 340 and 380 nm using FLEXstation II (Molecular Devices, Sunnyvale, Calif.). Each well was monitored for 80-120 sec. For testing agonist activity of the compounds, the test compounds were added automatically after 15 sec of baseline measurement. To determine antagonist properties, varying concentrations of the compounds were mixed with a constant concentration of LPA and responses were monitored. Each test was performed in quadruplicate. EC50, IC50, and Ki values were calculated by fitting a sigmoid function to data points with the nonlinear curve-fitting feature of KaleidaGraph (Synergy Software, Essex Junction, Vt.).

MDA-MB-231 cells [1] = test: Scratch wound healing migration assay; type: cell-based; conditions: for MDA-MB-231 cell migration in words: 10 and 40 μM, 24 h
Description: Inhibition of migration. MDA-MB-231 cells were plated in triplicate into six-well plates at a concentration of 3×10^5 cells per well. Approximately 48 hours later, the confluent cells were carefully scratched using sterile pipette tips. Nonadherent cells and cellular debris were removed by washing with PBS. Fresh medium with or without various concentrations of BrP-LPA 1, syn-BrP-LPA 1a, or anti-BrP-LPA 1b (1-100 μM) were added to the wounded monolayers. Cells were observed under the microscope and digitally photographed at different times. Inhibition of migration was assessed when the wound in the control was closed and quantified by using ImageJ.

MDA-MB-231 cells [2] = test: Matrigel transwell invasion assay; type: cell-based; conditions: Homo sapiens, 24 h, read-out: inhibition of MDA-MB-231 invasion through Matrigel
Description: Inhibition of invasion. The invasive behavior of cells was determined in vitro by using 24-well transwell inserts with an 8 μm pore size PET membrane which were coated with Matrigel basement membrane matrix. A suspension of cells (100 μL of 5×10^4) in serum-free medium with or without 10 μM syn-BrP-LPA la or anti-BrP-LPA 1b was added to triplicate inserts, and 600 μL medium supplemented with serum was used as a chemoattractant in the lower chamber. […] Ten fields of cells were counted for each well, and the mean number of cells per field was calculated. Each experiment was performed in triplicate and repeated at least twice.

MDA-MB-231 cells [3] = test: Orthotopic breast cancer xenograft; type: in vivo, nude mice; conditions: 3 mg/kg i.p., relative to control group
Description: Orthotopic Human Breast Cancer Models. 4-week-old female athymic nude mice (Charles River Laboratories) were anesthetized by intraperitoneal injection of ketamine (80 mg/kg) and xylazine (10 mg/kg),according to the protocol approved by the University of Utah Institutional Animal Care and Use Committee (IACUC). Then the thoracic skin was sterilized with iodine and alcohol swabs.
MDA-MB-231 were trypsinized and resuspended in 2.5% CMHA-S and 3% gelatin-DTPH (v:v=1:1). Then, one volume of 4% PEGDA solution was added to four volumes of the cell suspension, and the resulting suspension was mixed gently by vortexing. The final cell concentration was 5×10^7 cells/ml. When the cell suspension was becoming viscous (ca. 3-5 min at 20° C.), 200 uL of gel was injected subcutaneously into the fourth mammary fat pad of each mouse, using a total of six mice per group.
The assessment of chemotherapy on breast cancer. The mice were randomly divided into 4 groups, including control (physiological saline), paclitaxel, LPA antagonist (19b), and paclitaxel followed by 19b. Six mice for each cell line were necessary to get statistically significant results according to literature. The control group received physiological saline i.p. injection twice per week starting at two weeks after the cell transplantation and ending at two weeks after the treatment. The treatment groups received i.p. administration of paclitaxel (10 mg/kg/day) or 19b (10 mg/kg/day) twice per week with the same period of control group. One additional group included 2 dose of paclitaxel followed by 2 dose of 19b with the same period of control group. The treatment was received […] twice per week for 2 weeks total.
The body weight and tumor size were measured twice per week, and general clinical status of the animals was also assessed every day. Perpendicular tumor diameters were measured using a vernier scale caliper and tumor volume estimated using the formula for ellipsoid: […] (mm^3)=[width(mm)^2×length(mm)]/2. Data are expressed as median tumor areas with interquartile ranges.
Animals were euthanized at 4 weeks postinjection or once any signs of broken skin caused by the extension of tumor are found. Tumors were excised with surrounding tissues for histological evaluation. Analysis of variance was used to analyze the statistical difference on tumor growth between different groups. The results are in FIG. 8, where it is shown that the volume of the tumors is the lowest when mice were treated with paclitaxel followed by the administration of 19b.
Xenograft establishment and chemotherapy. […] The tumor sizes were measured and calculated by formula: tumor size (mm^3)=[width (mm)]^2×[length (mm)]/2. […]

[4] = transiently transfected RH7777 cells

T1 sequence (Q9H1C0 whole entry): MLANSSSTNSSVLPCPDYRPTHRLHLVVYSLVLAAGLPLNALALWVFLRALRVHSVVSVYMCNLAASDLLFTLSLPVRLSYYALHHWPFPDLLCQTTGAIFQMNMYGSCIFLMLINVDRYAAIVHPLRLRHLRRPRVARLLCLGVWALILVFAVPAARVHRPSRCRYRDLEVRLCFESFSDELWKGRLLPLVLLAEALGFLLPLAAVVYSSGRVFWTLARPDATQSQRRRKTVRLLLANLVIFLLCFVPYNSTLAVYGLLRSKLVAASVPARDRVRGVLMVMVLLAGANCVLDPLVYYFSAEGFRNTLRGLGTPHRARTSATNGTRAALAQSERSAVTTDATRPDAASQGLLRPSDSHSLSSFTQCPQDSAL

Work on `CCCCCCCCCCCCCCCC(=O)OC[C@@H](O)CC(Br)P(=O)(O)O` (mixture of isomers) [Compound 1, [1-Bromo-3(S)-hydroxyl-4-(palmitoyloxy)butyl]-phosphonate] yielded an Emax at 10 µM (human LPA5) of 54% and an EC50 (human LPA5; transiently transfected RH7777 cells, NS = non-saturated) of 1280 nM.
With `CCCCCCCCCCCCCCCC(=O)OC[C@@H](O)C[C@@H](Br)P(=O)(O)O` [Compound 1a] the Emax at 10 µM (human LPA5) was 64%, the LPA5 ligand type (human LPA5) was “Partial Agonist” and the “MDA-MB-231 cell migration in words” value (MDA-MB-231 cells [1]) was “inhibited the MDA-MB-231 cell migration”. For the same compound, the inhibition at 10 µM (MDA-MB-231 cells [2]) was about 52% and the “tumor volume, separate diastereomers” value (MDA-MB-231 cells [3]) was “significantly decreased the tumor volume; also recorded: reduces tumor size”.
For `CCCCCCCCCCCCCCCC(=O)OC[C@@H](O)C[C@H](Br)P(=O)(O)O` [Compound 1b], the LPA5 ligand type (human LPA5) was “showed inhibition of LPA5; also recorded: Antagonist”, the IC50 (human LPA5; [4]) was 977 nM and the Ki (human LPA5; [4]) was 376 nM. The “decrease of MDA-MB-231 cell migration” value (MDA-MB-231 cells [1]; 40 μM, compared to control, scratch wound) was 57%, the “MDA-MB-231 cell migration in words” value (MDA-MB-231 cells [1]) was “inhibited the MDA-MB-231 cell migration” and the inhibition at 10 µM (MDA-MB-231 cells [2]) was about 52%. For the same compound, the “tumor volume, separate diastereomers” value (MDA-MB-231 cells [3]) was “significantly decreased the tumor volume; also recorded: reduces tumor size”.
